12 compounds from patent US11617748B2, “Meclozine derivatives and diclazuril derivatives for use in the prevention and/or the treatment of disorders associated to the inflammation induced by P. acnes” (priority 2016, dated 2023) can be followed below.

Common to all, as to assay type: cell-based, human
The subject of data set [1] is IL-8 production. Nature of the data set: P. acnes-induced IL-8 production in HaCaT keratinocytes (ELISA). The settings on record: for Dose-dependent inhibition of IL-8 production by keratinocytes stimulated by P. acnes pre-treated with meclozine analogues: 10 μM; for Dose-dependent inhibition of IL-8 production by keratinocytes stimulated by P. acnes pre-treated with meclozine analogues / decrease of IL-8 production at 6.25 μM: 24 h pre-treatment; for decrease of IL-8 production at 6.25 μM: comparison with acne drugs (FIG. 8A); for effect on IL-8 production at 6.25 μM, in words: 24 h pre-treatment (FIG. 8A). Here is the method:
Bacterial strain and conditions of growth. P. acnes strain 6919 was obtained from the American Type Culture Collection (Manassas, Va.) and P. acnes strains RON and PIE were isolated from patient with joint infection. All strains were grown under anaerobic conditions in reinforced clostridial liquid and solid medium (RCM) (Difco Laboratories, Detroit, Mich.). P. acnes was transferred from the bacterial stock onto RCM agar plate and incubated for 5 days under anaerobic condition by using a GasPak™ EZ Anaerobic Container System (Becton Dickinson & Co, Sparks Md., USA). A single colony was transferred into 100 ml RCM and grown as described above. Bacterial suspension was then store frozen at −80° C. in presence of 10% glycerol final. This stock was called «start stock» and used for all the experiments. For routine culture, 100 ml of RCM was used and bacteria were harvested after 5 days at 37° C. by centrifugation at 7,000×g for 10 min at 4° C. Pellets were pooled and washed in about 30 ml of cold sterile PBS [1.5 mM KH2PO4, 2.7 mM Na2HPO4.7H2O, 0.15 M NaCl (pH 7.4)] and centrifuged again as described above. Finally, the bacterial pellet was suspended in sterile PBS (1:10 from volume culture).
(§1) Cell culture, pretreatment and stimulation. The immortalized human keratinocyte cell line HaCaT, fibroblast MRC5 were grown in Dulbecco's modified Eagle's medium-Glutamax-I (DMEM) with 1 mM sodium pyruvate. The immortalized human monocytic cell line ThP1 was grown in Roswell Park Memorial Institute 1640 Medium-Glutamax-I (RPMI). DMEM and RPMI were supplemented with 0.1% and 10% heat-inactivated fetal calf serum (Invitrogen), and an antibiotic/antimycotic solution (10 U/ml Pencillin, 10 μg/ml Streptomycin, 0.25 μg/ml Amphoterin) at 37° C. in humidified atmosphere containing 5% CO2 as described (Life Technologie). Primary human keratinocytes (NHDK) and fibroblast (HDF) were grown in the KGM-Gold and in FGM-2 Bullet Kit, respectively, as described by the manufacturer (Lonza). The immortalized cell lines were routinely tested to assess the absence of Mycoplasma infection. Cells, cultivated in 6- or 96-well polystyrene plates, were pretreated with appropriate molecule solution for 1 to 48 h at 37° C. in the dark at the appropriate concentration. Then, for stimulation, cells were incubated for 15 min to 24 h with the P. acnes suspension adjusted at the appropriate concentration at 37° C. in 5% CO2. For experiences using an in vitro model of psoriasis, the primary human keratinocytes (NHDK) were grown in culture medium for 24 hours. The medium was removed and replaced with culture medium containing meclozine, diclazuril and JAK inhibitor (used as positive control) at the concentrations of 0.39, 0.78, 1.56, 3.12, 6.25 and 12.5 μM and the pro-inflammatory mixture M5 (combination of IL-17A, OSM, TNF-α, IL-22, IL-1α at 10 ng/ml) was added to the cells followed by an incubation for 48 or 72 hours.
(§2) ELISA. Human IL-1β, IL-8, hBD-2 and TNF-α protein concentration were measured in the supernatants of stimulated cells using various ELISA Sets (all from Ready-Set-Go from eBioscience, except hBD-2 measurements: Human DEFB4A/BD-2 ELISA Kit from LSBio) according to the manufacturer's instructions. We used serial dilutions of recombinant human IL-1β, IL-8, hBD-2 and TNF-α for standard curve. The optical density was determined at 450 nm at a wavelength correction of 540 nm.
Both molecules, diclazuril and meclozine, were purchased separately from Sigma and tested independently on immortalized keratinocytes HaCaT cell for their capacity to inhibit the IL-8 production in a dose-dependent manner. HaCaT cells were pre-treated with diclazuril and meclozine, at the concentrations ranging from 0.39 to 50 μM, for 24 h and then stimulated with P. acnes suspension as described in Materials and Methods. The production of IL-8 was measured on culture supernatant by ELISA and the viability of cells was estimated by MTT assay (FIG. 1).
(In general: In an ELISA, binding on a coated surface is turned into a signal by an enzyme label.)

The test system of the next data set is HaCaT cells. Put plainly: MTT cell viability assay on HaCaT keratinocytes. The settings on record: for Evaluation of cell viability after treatment with meclozine analogues on keratinocytes: 24 h, 10 μM. The method, then:
as §1, with “The immortalized human monocytic cell line ThP1 was grown in Roswell Park Memorial Institute 1640 Medium-Glutamax-I (RPMI).” left out, “hours.” for “hours. The medium was removed and replaced with culture medium containing meclozine, diclazuril and JAK inhibitor (used as positive control) at the concentrations of 0.39, 0.78, 1.56, 3.12, 6.25 and 12.5 μM and the pro-inflammatory mixture M5 (combination of IL-17A, OSM, TNF-α, IL-22, IL-1α at 10 ng/ml) was added to the cells followed by an incubation for 48 or 72 hours.”
Cell viability assays. Viability of cells was estimated by using the MTT assay where cells were incubated with a 0.2% MTT solution in cell culture medium for 4 h at 37° C. The MTT solution was then discarded and DMSO added to solubilize the MTT-formazan cristals produced in living cells. After thorough mixing, the absorbance was measured at 540 nm.

Data set [2] concerns IL-8 production. Nature of the data set: P. acnes-induced IL-8 production in HaCaT keratinocytes (ELISA). The settings on record: HaCaT cells pre-treated 24 h, no P. acnes stimulation.
The test system of data set [3] is IL-8 production. Put plainly: IL-8 production by M5-stimulated NHDK, in vitro psoriasis-like model (ELISA). The settings on record: NHDK + M5, 48 h, JAK inhibitor at 6.25 μM (positive control). The method, then:
(§3) Cell culture, pretreatment and stimulation.
as §2

Another data set has as its system hBD-2 production. Nature of the data set: hBD-2 production by M5-stimulated NHDK, in vitro psoriasis-like model (ELISA). The settings on record: NHDK + M5, 48 h, JAK inhibitor at 6.25 μM (positive control). Here is the method: as §3, §2

Where a name gives a salt, the structure may show the parent alone.

For the compound `CN1CCN(C(c2ccccc2)c2ccc(Cl)cc2)CC1` (centres unmarked) [Chlorcyclizine hydrochloride], the “Dose-dependent inhibition of IL-8 production by keratinocytes stimulated by P. acnes pre-treated with meclozine analogues” value in the data set on IL-8 production [1] (HaCaT) amounted to 54%. In addition, the “Evaluation of cell viability after treatment with meclozine analogues on keratinocytes” value in the data set on HaCaT cells (human) was determined as 81%. In the same order, the values of `Fc1ccc(C(OCCN2CCN(CCCc3ccccc3)CC2)c2ccc(F)cc2)cc1` [GBR 12909 dihydrochloride] are 78% and 78%. In the same order, the values of `Cc1cccc(C)c1NC(=O)CN1CCN(CCCC(c2ccc(F)cc2)c2ccc(F)cc2)CC1` [Lidoflazine] are 65% and 107%. Regarding `COc1ccc(CN2CCN(C(c3ccc(F)cc3)c3ccc(F)cc3)CC2)c(OC)c1OC` [Lomerizine], the “Dose-dependent inhibition of IL-8 production by keratinocytes stimulated by P. acnes pre-treated with meclozine analogues” value in the data set with IL-8 production [1] (HaCaT) is recorded as 58%. Moreover, the “Evaluation of cell viability after treatment with meclozine analogues on keratinocytes” value in the data set with HaCaT cells (HaCaT, MTT) worked out at 95%.

For the compound `Cc1cc(-n2ncc(=O)[nH]c2=O)cc(Cl)c1Sc1ccc(Cl)cc1` [RCL PH000645-PH, PH000645-PH], the IC50 (commonly the concentration that gives 50% inhibition) in the data set with IL-8 production [1] (Homo sapiens, HaCaT cells pre-treated 24 h, then stimulated with P. acnes, read-out: IC50 of inhibition of IL-8 production) was roughly 3000 nM. Moreover, the “IL-8 production in pretreated cells without being stimulated” value with IL-8 production [2] was “no change”. Regarding `COc1ccc(-c2ccc3cc(C(=O)O)ccc3c2)cc1C12CC3CC(CC(C3)C1)C2` [adapalene], the “decrease of IL-8 production at 6.25 μM” value in the data set with IL-8 production [1] (HaCaT) is on record as 20%. Besides, in the data set with IL-8 production [1] (HaCaT, 12.5 μM, 24 h pre-treatment (FIG. 8B)), the “IL-8 reduction at 12.5 μM” value was found to be 90%.

For `O=C(OOC(=O)c1ccccc1)c1ccccc1` [benzoyl peroxide], the “effect on IL-8 production at 6.25 μM, in words” value in the data set with IL-8 production [1] (HaCaT) is “very low none significative or no effect”. The “toxicity at 6.25 μM, in words (MTT)” value in the data set with HaCaT cells (HaCaT, 6.25 μM, 24 h pre-treatment (FIG. 8A)) is “no toxicity”. Turning to `CCC[C@@H]1C[C@@H](C(=O)N[C@@H]([C@H]2O[C@H](SC)[C@H](O)[C@@H](O)[C@H]2O)[C@H](C)Cl)N(C)C1` [clindamycine], the “effect on IL-8 production at 6.25 μM, in words” value with IL-8 production [1] (HaCaT) is recorded as “very low none significative or no effect”. The same measure, in the same setting: the entry for `CC[C@H]1OC(=O)[C@H](C)[C@@H](O[C@H]2C[C@@](C)(OC)[C@@H](O)[C@H](C)O2)[C@H](C)[C@@H](O[C@@H]2O[C@H](C)C[C@H](N(C)C)[C@H]2O)[C@](C)(O)C[C@@H](C)C(=O)[C@H](C)[C@@H](O)[C@]1(C)O` [erythromycine] is “very low none significative or no effect”. As to `CC1=C(/C=C/C(C)=C/C=C/C(C)=C\C(=O)O)C(C)(C)CCC1` [isotretinoin], the “decrease of IL-8 production at 6.25 μM” value with IL-8 production [1] (HaCaT) amounted to 5%. Same read-out and setting: the value for `CC1=C(/C=C/C(C)=C/C=C/C(C)=C/C(=O)O)C(C)(C)CCC1` [retinoic acid] was 5%.

For the compound Jak Inhibitor I, in the data set with IL-8 production [3], the “inhibition of M5-stimulated IL-8 production” value is given as 49%. Also, the “inhibition of stimulated hBD-2 production” value in the data set on hBD-2 production was 38%.
